Patent US20250345329A1, “HETEROARYL DERIVATIVE COMPOUND AND USES THEREOF” (VORONOI, INC., priority 2022, published 2025)

Tests used:
[1] = target: T1, human EGFR (d746-750/T790M/C797S) (Homo sapiens, UniProt P00533, C797S/DEL746-750/T790M); assay: EGFR C797S enzyme inhibition activity (ADP-Glo kinase assay); type: biochemical; details: purified enzyme 3 ng, ATP 5 μM, 25° C., 1 hour, luminescence; read-out: EGFR DTC Enzyme IC50
T1 construct: human EGFR (d746-750/T790M/C797S) (668-end, SignalChem); purchased SignalChem
T1 sequence (P00533 with tags, fused parts or gaps DEL746-750/T790M/C797S): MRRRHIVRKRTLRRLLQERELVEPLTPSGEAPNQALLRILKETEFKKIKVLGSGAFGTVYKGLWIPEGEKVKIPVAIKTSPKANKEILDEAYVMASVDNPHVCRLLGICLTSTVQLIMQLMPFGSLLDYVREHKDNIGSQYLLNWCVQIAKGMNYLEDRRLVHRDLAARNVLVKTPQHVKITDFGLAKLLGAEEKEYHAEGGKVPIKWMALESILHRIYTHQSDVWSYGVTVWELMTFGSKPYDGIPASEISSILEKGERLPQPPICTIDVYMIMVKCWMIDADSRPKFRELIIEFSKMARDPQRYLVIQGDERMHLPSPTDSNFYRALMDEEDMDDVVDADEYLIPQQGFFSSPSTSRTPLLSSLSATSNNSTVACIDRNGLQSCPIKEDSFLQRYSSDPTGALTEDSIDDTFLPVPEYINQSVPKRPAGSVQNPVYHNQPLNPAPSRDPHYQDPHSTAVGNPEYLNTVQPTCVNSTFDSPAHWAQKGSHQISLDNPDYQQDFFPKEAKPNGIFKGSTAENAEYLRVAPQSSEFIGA
Description: <Experimental Example 1> Evaluation of EGFR C797S Enzyme Inhibition Activity
The compounds according to the present invention were reacted together with purified human EGFR (d746-750/T790M/C797S) (668-end, SignalChem) enzyme and a specific substrate and evaluated for enzyme inhibitory activity as described below. The reaction buffer consisted of 40 mM Tris-HCl pH 7.4, 20 mM MgCl2, 0.5 mg/ml BSA, and 50 μM DTT, and all reactions of the test substances were performed in reaction buffers. The compounds were serially diluted in 12 steps from a 10 mM DMSO stock, and the enzyme activity was measured at the final compound concentrations of 10, 3, 1, 0.3, 0.1, 0.03, 0.01, 0.003, 0.001, 0.0003, 0.0001, and 0 μM. In the assay, human EGFR (d746-750/T790M/C797S) (3 ng) enzyme was reacted with purified ATP (5 μM) and enzyme substrate (0.2 μg) at 25° C. for 1 hour, and the enzyme activity was determined using the in vitro ADP-Glo™ kinase assay (Promega). The enzyme activity inhibition was measured via luminescence by reacting the enzyme activity reaction solution, ADP-Glo reaction solution, and enzyme activity detection solution in a 2:2:1 ratio. Based on the luminescence of the enzyme activity of the solvent control group that was not treated with the compound, the degree of the enzyme activity inhibition depending on the treatment concentration of each compound was calculated, wherein the concentration of each compound that inhibited the enzyme activity by 50% was determined as the IC50 (nM) value, which was obtained using GraphPad Prism 8.4.3 (GraphPad software Inc., San Diego).

[2] = test system: Ba/F3 expressing EGFR Del19/T790M/C797S mutations; assay: Inhibitory activity on proliferation of Ba/F3 cell overexpressing EGFR C797S (Cell Titer-Glo); type: cell-based; details: Mus musculus, BaF3; 72 hours treatment, cell growth rate vs control; read-out: Ba/F3 (EGFR DTC) GI50
Description: <Experimental Example 2> Evaluation of Inhibitory Activity on Proliferation of Ba/F3 Cell Overexpressing EGFR C797S
The following experiments were performed to evaluate the inhibitory activity of the compounds according to the present invention on the proliferation of Ba/F3 expressing EGFR Del19/T790M/C797S mutations.
Ba/F3 cells were cultured in RPMI-1640 medium supplemented with 10% fetal bovine serum (FBS), and 3000 cells were seeded into each well of a white clear bottom 96 well plate (Corning) 24 hours prior to compound treatment. The compounds were diluted in dimethyl sulfoxide (3-fold dilution, total of 12 concentrations) and injected at 1 μl each so that the final concentration was […] to 5 μM. After 72 hours post treatment with compounds, living cells were reacted in a 37° C., CO2 incubator for […], followed by 10 minutes at room temperature using Cell Titer-Glo luminescent cell-viability reagent (Promega), and the luminescence intensity thereof was measured using a reader (SynergyNeo2, Biotek). The result values were calculated as a cell growth rate (%) compared to the control group. GI50 values were calculated using the GraphPad Prism version 8.4.3 (GraphPad software Inc., San Diego) program.

Row | SMILES | IC50 [1] | GI50 [2]
1 | CC(C)Nc1cc(Nc2ccnc(-c3cnn(S(=O)(=O)C4CC4)c3)n2)ncc1C(=O)N1C[C@H](CS(C)(=O)=O)[C@H]1C [Example 71, (6-((2-(1-(cyclopropylsulfonyl)-1H-pyrazol-4-yl)pyrimidin-4-yl)amino)-4-(isopropylamino)pyri-din-3-yl)((2R,3S)-2-methyl-3-((methylsulfonyl)meth-yl)azetidin-1-yl)methanone] | < 50 nM | 500 to 5000 nM
2 | COC(=O)CCNC(=O)c1cnc(Nc2ccnc(N3CC[C@H](OC)[C@H](F)C3)n2)cc1NC(C)C (relative stereo) [Example 97, methyl 3-(6-((2-(cis-3-fluoro-4-methoxypiperidin-1-yl)pyrimidin-4-yl)amino)-4-(isopropylamino)nico-tinamido)propanoate] | < 50 nM | 500 to 5000 nM
3 | CC(C)Nc1cc(Nc2ccnc(-c3cnn(S(=O)(=O)C4CC4)c3)n2)ncc1C(=O)NC(CCN(C)C)c1ccccc1 (stereo not shown) [Example 53, 6-((2-(1-(cyclopropylsulfonyl)-1H-pyrazol-4-yl)pyrimidin-4-yl)amino)-N-(3-(dimethylamino)-1-phenylpropyl)-4-(isopropylamino)nico-tinamide] | < 50 nM | 500 to 5000 nM
4 | CC(C)Nc1cc(Nc2ccnc(-c3cnn(S(=O)(=O)C4CC4)c3)n2)ncc1C(=O)N1CC(CS(C)(=O)=O)C1 [Example 1, (6-((2-(1-(cyclopropylsulfonyl)-1H-pyrazol-4-yl)pyrimidin-4-yl)amino)-4-(isopropylamin)pyri-din-3-yl)(3-((methylsulfonyl)meth-yl)azetidin-1-yl)methanone] | < 50 nM | 500 to 5000 nM
5 | CC(C)Nc1cc(Nc2ccnc(-c3cnn(S(=O)(=O)C4CC4)c3)n2)ncc1C(=O)NCCCN(C)C [Example 34, 6-((2-(1-(cyclopropylsulfonyl)-1H-pyrazol-4-yl)pyrimidin-4-yl)amino)-N-(3-(dimethylamino)pro-pyl)-4-(isopropylamino)nico-tinamide] | < 50 nM | 500 to 5000 nM
6 | CO[C@H]1CCN(c2nccc(Nc3cc(NC(C)C)c(C(=O)NCCC(F)(F)F)cn3)n2)C[C@H]1F (relative stereo) [Example 98, 6-((2-(cis-3-fluoro-4-methoxypiperidin-1-yl)pyrimidin-4-yl)amino)-4-(isopropylamino)-N-(3,3,3-trifluoropropyl)nico-tinamide] | < 50 nM | < 500 nM
7 | CC(C)Nc1cc(Nc2ccnc(-c3cnn(S(=O)(=O)C4CC4)c3)n2)ncc1C(=O)NCCS(=O)(=O)C(C)C [Example 74, 6-((2-(1-(cyclopropylsulfonyl)-1H-pyrazol-4-yl)pyrimidin-4-yl)amino)-4-(isopropylamino)-N-(2-(isopropylsulfonyl)eth-yl)nicotinamide] | < 50 nM | 500 to 5000 nM
8 | COC(=O)CCNC(=O)c1cnc(Nc2ccnc(-c3cnn(S(=O)(=O)C4CC4)c3)n2)cc1NC(C)C [Example 50, methyl 3-(6-((2-(1-(cyclopropylsulfonyl)-1H-pyrazol-4-yl)pyrimidin-4-yl)amino)-4-(isopropylamino)nico-tinamido)propanoate] | < 50 nM | 500 to 5000 nM
9 | CC(C)Nc1cc(Nc2ccnc(-c3cnn(S(=O)(=O)C4CC4)c3)n2)ncc1C(=O)NC1CN(C(=O)OC(C)(C)C)C1 [Example 46, tert-butyl 3-(6-((2-(1-(cyclopropylsulfonyl)-1H-pyrazol-4-yl)pyrimidin-4-yl)amino)-4-(isopropylamino)nico-tinamido)azetidine-1-carboxylate] | 50 to 500 nM | 500 to 5000 nM
10 | CC(C)Nc1cc(Nc2ccnc(-c3cnn(S(=O)(=O)C4CC4)c3)n2)ncc1C(=O)NCC1CCCC1 [Example 56, N-(cyclopentylmethyl)-6-((2-(1-(cyclopropylsulfonyl)-1H-pyrazol-4-yl)pyrimidin-4-yl)amino)-4-(isopropylamino)-nicotinamide] | 50 to 500 nM | 500 to 5000 nM
11 | CC(C)Nc1cc(Nc2ccnc(-c3cnn(S(=O)(=O)C4CC4)c3)n2)ncc1C(=O)NC1CCN(C(=O)OC(C)(C)C)C1 (stereo not shown) [Example 47, tert-butyl 3-(6-((2-(1-(cyclopropylsulfonyl)-1H-pyrazol-4-yl)pyrimidin-4-yl)amino)-4-(isopropylamino)nico-tinamido)pyrrolidine-1-carboxylate] | 50 to 500 nM | 500 to 5000 nM

The next lines start with the values.

Row | IC50 [1] | GI50 [2] | SMILES
12 | < 50 nM | < 500 nM | C[C@H]1CCOc2c(cnn2C)-c2nccc(n2)Nc2cc(c(C(=O)NCC#N)cn2)N1 [Example 80, (S)-N-(cyanomethyl)-1^1,6-dimethyl-1^1H-9-oxa-3,5-diaza-2(2,4)-pyrimidina-4(2,4)-pyridina-1(4,5)-pyrazolacyclo-nonaphane-4^5-carboxamide]
13 | < 50 nM | < 500 nM | C[C@H]1CCOc2c(cnn2C)-c2nccc(n2)Nc2cc(c(C(=O)NC3CCCC(C(F)(F)F)C3)cn2)N1 (stereo partly drawn) [Example 119, (6S)-1^1,6-dimethyl-N-(3-(trifluoroemthyl)cy-clohexyl)-1^1H-9-oxa-3,5-diaza-2(2,4)-pyrimidina-4(2,4)-pyridina-1(4,5)-pyrazolacyclo-nonaphane-4^5-carboxamide]
14 | < 50 nM | < 500 nM | CC(C)Nc1cc(Nc2ccnc(-c3cnn(S(=O)(=O)C4CC4)c3)n2)ncc1C(=O)NCCN1CCOCC1 [Example 83, 6-((2-(1-(cyclopropylsulfonyl)-1H-pyrazol-4-yl)pyrimidin-4-yl)amino)-4-(isopropylamino)-N-(2-morpholinoethyl)nico-tinamide]
15 | < 50 nM | 500 to 5000 nM | C[C@H]1CCOc2c(cnn2C)-c2nccc(n2)Nc2cc(c(C(=O)N3CC(CS(C)(=O)=O)C3)cn2)N1 [Example 105, (S)-(1^1,6-dimethyl-1^1H-9-oxa-3,5-diaza-2(2,4)-pyrimidina-4(2,4)-pyridina-1(4,5)-pyrazolacyclo-nonaphane-4^5-yl)(3-((methylsulfonyl)meth-yl)azetidin-1-yl)methanone]
16 | < 50 nM | < 500 nM | C[C@H]1CCOc2c(cnn2C)-c2nccc(n2)Nc2cc(c(C(=O)Nc3cccc(N4CCN(C)CC4)c3)cn2)N1 [Example 100, (S)-1^1,6-dimethyl-N-(3-(4-methylpiperazin-1-yl)phenyl)-1^1H-9-oxa-3,5-diaza-2(2,4)-pyrimidina-4(2,4)-pyridina-1(4.5)-pyrazolacyclo-nonaphane-4^5-carboxamide]
17 | < 50 nM | 500 to 5000 nM | C[C@H]1CCOc2c(cnn2C)-c2nccc(n2)Nc2cc(c(C(=O)NC(CCN(C)C)c3ccccc3)cn2)N1 (stereo partly drawn) [Example 120, (6S)-N-(3-(dimethylamino)-1-phenylpropyl)-1^1,6-dimethyl-1^1H-9-oxa-3,5-diaza-2(2,4)-pyrimidina-4(2,4)-pyridina-1(4,5)-pyrazolacyclo-nonaphane-4^5-carboxamide]
18 | < 50 nM | 500 to 5000 nM | C[C@H]1CCOc2c(cnn2C)-c2nccc(n2)Nc2cc(c(C(=O)NCCS(C)(=O)=O)cn2)N1 [Example 110, (S)-1^1,6-dimethyl-N-(2-(methylsulfonyl)ethyl)-1^1H-9-oxa-3,5-diaza-2(2,4)-pyrimidina-4(2,4)-pyridina-1(4,5)-pyrazolacyclo-nonaphane-4^5-carboxamide]
19 | < 50 nM | 500 to 5000 nM | CO[C@H]1CCN(c2nccc(Nc3cc(NC(C)C)c(C(=O)Nc4cccc(N5CCN(C)CC5)c4)cn3)n2)C[C@H]1F (relative stereo) [Example 41, 6-((2-(cis-3-fluoro-4-methoxypiperidin-1-yl)pyrimidin-4-yl)amino)-4-(isopropylamino)-N-(3-(4-methylpiperaizn-1-yl)phenyl)nicotinamide]
20 | < 50 nM | 500 to 5000 nM | CC(C)Nc1cc(Nc2ccnc(-c3cnn(S(=O)(=O)C4CC4)c3)n2)ncc1C(=O)NCC1CCN(C)CC1 [Example 51, 6-((2-(1-(cyclopropylsulfonyl)-1H-pyrazol-4-yl)pyrimidin-4-yl)amino)-4-(isopropylamino)-N-((1-methylpiperidin-4-yl)methyl)nicotinamide]
